SMILES	logP
CCCCCCCl	3.66
CCCCC(=O)OCC	2.3
CCCCCCCCC(=O)OC	3.87
CCCC(C)(C)O	1.53
CCCCC(=O)CCCC	2.88
CC(C)CCl	2.39
CCCCCCCCCCBr	6
CCC(C)(C)CC	5.19
C#CCC	1.46
CC(C)C(C)(C)O	1.48
CCCC(=O)CCC	2.04
CCOC=O	0.27
CCCCCC(=O)OC	2.42
C=CCCC	2.8
CCCCCCCCC	5.65
CCCCCCCCCl	4.73
OC1CCCCCC1	1.83
ClCC(Cl)(Cl)Cl	2.66
OC1CCCCCCC1	2.39
CC(C)CBr	2.53
CC(C)Br	2.1
CCCCCI	3.62

SMILES	logP
CC(=O)OC(C)C	1.02
C#CCCCCC	3.32
ClCCCCCl	2.24
CCCC(=O)OCC	1.71
CCCCCCCCCCc1ccccc1	7.4
CCN1CCCCC1	1.88
CCC(C)(C)c1ccc(O)cc1	3.83
CCCCI	3.08
CCC(=O)OC(C)C	1.57
CCCCCCl	3.11
CCOC(=O)C(C)C	1.55
CCCOC(=O)CCC	2.15
C#CCCCCCCC	4.51
CCCCCCCCCCCCCC	8
CCCCOC(=O)CCCC	3.36
CCCOC(=O)CC	1.71
C#CCCCCCC	3.92
CCCCCCI	4.16
CC1CCCO1 (centres undefined)	1.25
C=CCC=CC	3.16
CCCI	2.54
CCCCF	2

From the SangsterLogP compilation
